Data taken from US8952024B2, “Herbicidal pyrimidone derivatives” (E I du Pont de Nemours and Company, priority 2009, dated 2015).

Tests used:
Type in all cases: in vivo
[1] = system: wheat (Triticum aestivum); assay: Test A pre-/postemergence plant response
Summary of the method: (§1)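 Visually rated 0–100 injury (100 = complete control) versus untreated plants, ~10 days in greenhouse. Application pre- (soil spray, loam/sand) and postemergence (2–10 cm, 1–2 leaf stage), same timepoint.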

[2] = system: giant foxtail (Setaria faberii); assay: Test A pre-/postemergence plant response
Summary of the method: as §1

[3] = system: barnyardgrass (Echinochloa crus-galli); assay: Test A pre-/postemergence plant response
Summary of the method: as §1

[4] = system: large crabgrass (Digitaria sanguinalis); assay: Test A pre-/postemergence plant response
Summary of the method: as §1

[5] = system: velvetleaf (Abutilon theophrasti); assay: Test A pre-/postemergence plant response
Summary of the method: as §1

[6] = system: morningglory (Ipomoea spp.); assay: Test A pre-/postemergence plant response
Summary of the method: as §1

corn (Zea mays) = assay: Test A pre-/postemergence plant response
Summary of the method: as §1

[7] = system: pigweed (Amaranthus retroflexus); assay: Test A pre-/postemergence plant response
Summary of the method: as §1

[8] = system: umbrella sedge (Cyperus difformis); assay: Test B flooded paddy test; settings: for Plant response rating, Flood, Sedge, Umbrella: 250 g ai/ha, flooded paddy test, visual rating on 0 to 100 scale (0 no effect, 100 complete control) after 13 to 15 days; for Plant response rating, Sedge, Umbrella: Flood (flooded paddy test), 13 to 15 days
Summary of the method: (§2)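 Flooded-pot test: water raised to 3 cm above soil when treating, compound put in the water, level unchanged thereafter. Plants were at 2 leaves. Readout after 13 to 15 days, visual, relative to controls; 0 signifies no effect and 100 complete control.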

[9] = system: barnyardgrass (Echinochloa crus-galli); assay: Test B flooded paddy test; settings: for Plant response rating, Flood, Barnyardgrass: 250 g ai/ha, flooded paddy test, visual rating on 0 to 100 scale (0 no effect, 100 complete control) after 13 to 15 days; for Plant response rating, Barnyardgrass: Flood (flooded paddy test), 13 to 15 days
Summary of the method: as §2

[10] = system: ducksalad (Heteranthera limosa); assay: Test B flooded paddy test; settings: for Plant response rating, Flood, Ducksalad: 250 g ai/ha, flooded paddy test, visual rating on 0 to 100 scale (0 no effect, 100 complete control) after 13 to 15 days; for Plant response rating, Ducksalad: Flood (flooded paddy test), 13 to 15 days
Summary of the method: as §2

rice (Oryza sativa) = assay: Test B flooded paddy test; settings: for Plant response rating, Flood, Rice: 250 g ai/ha, flooded paddy test, visual rating on 0 to 100 scale (0 no effect, 100 complete control) after 13 to 15 days; for Plant response rating, Rice: Flood (flooded paddy test), 13 to 15 days
Summary of the method: as §2

[11] = Postemergence, 125 g ai/ha, visual injury, 0 to 100 scale (0 no effect, 100 complete control), approx. ten days
[12] = Postemergence, 500 g ai/ha, 0 to 100 scale, 0 = no effect, 100 = complete control, approx. ten days
[13] = Preemergence, 125 g ai/ha, 0 to 100 scale, 0 = no effect, 100 = complete control
[14] = Preemergence, 500 g ai/ha, visual injury, 0 to 100 scale (0 no effect, 100 complete control), approx. ten days
[15] = 31 g ai/ha, scale of 0 to 100 where 0 is no effect and 100 is complete control
[16] = 62 g ai/ha, scale of 0 to 100 where 0 is no effect and 100 is complete control
[17] = 125 g ai/ha, scale 0 to 100, 0 is no effect, 100 is complete control

## Cc1ccc(Cl)cc1-n1c(-c2ccccc2)ncc(C(=O)C2=C(O)CCCC2=O)c1=O [Compound 52]
[1]; [11]
  Wheat plant response rating: 0
[1]; [12]
  Plant response rating, Wheat: 40
[1]; [13]
  Plant response rating, Wheat: 0
[1]; [14]
  Plant response rating, Wheat: 0
[2]; [11]
  Foxtail, Giant plant response rating: 90
[2]; [12]
  Plant response rating, Foxtail, Giant: 100
[2]; [13]
  Plant response rating, Foxtail, Giant: 80
[2]; [14]
  Plant response rating, Foxtail, Giant: 100
[3]; [11]
  Barnyardgrass plant response rating: 90
[3]; [12]
  Plant response rating, Barnyardgrass: 90
[3]; [13]
  Plant response rating, Barnyardgrass: 40
[3]; [14]
  Plant response rating, Barnyardgrass: 100
[4]; [11]
  Crabgrass, Large plant response rating: 90
[4]; [12]
  Plant response rating, Crabgrass, Large: 100
[4]; [13]
  Plant response rating, Crabgrass, Large: 90
[4]; [14]
  Plant response rating, Crabgrass, Large: 100
[5]; [11]
  Velvetleaf plant response rating: 100
[5]; [12]
  Plant response rating, Velvetleaf: 100
[5]; [13]
  Plant response rating, Velvetleaf: 100
[5]; [14]
  Plant response rating, Velvetleaf: 100
[6]; [11]
  Morningglory plant response rating: 100
[6]; [12]
  Plant response rating, Morningglory: 100
[6]; [13]
  Plant response rating, Morningglory: 30
[6]; [14]
  Plant response rating, Morningglory: 90
Corn (Zea mays); [11]
  Corn plant response rating: 0
Corn (Zea mays); [12]
  Plant response rating, Corn: 70
Corn (Zea mays); [13]
  Plant response rating, Corn: 0
Corn (Zea mays); [14]
  Plant response rating, Corn: 10
[7]; [11]
  Pigweed plant response rating: 90
[7]; [12]
  Plant response rating, Pigweed: 100
[7]; [13]
  Plant response rating, Pigweed: 100
[7]; [14]
  Plant response rating, Pigweed: 100
[8]
  Plant response rating, Flood, Sedge, Umbrella: 40
[8]; [15]
  Plant response rating, Sedge, Umbrella: 20
[8]; [16]
  Plant response rating, Sedge, Umbrella: 30
[8]; [17]
  Plant response rating, Sedge, Umbrella: 30
[9]
  Plant response rating, Flood, Barnyardgrass: 55
[9]; [15]
  Plant response rating, Barnyardgrass: 0
[9]; [16]
  Plant response rating, Barnyardgrass: 0
[9]; [17]
  Plant response rating, Barnyardgrass: 40
[10]
  Plant response rating, Flood, Ducksalad: 70
[10]; [15]
  Plant response rating, Ducksalad: 0
[10]; [16]
  Plant response rating, Ducksalad: 0
[10]; [17]
  Plant response rating, Ducksalad: 40
Rice (Oryza sativa)
  Plant response rating, Flood, Rice: 60
Rice (Oryza sativa); [15]
  Plant response rating, Rice: 0
Rice (Oryza sativa); [16]
  Plant response rating, Rice: 0
Rice (Oryza sativa); [17]
  Plant response rating, Rice: 50

## Cc1cccc(-n2c(-c3ccccc3)ncc(C(=O)C3=C(O)CCCC3=O)c2=O)c1F [Compound 58]
[1]; [11]
  Wheat plant response rating: 0
[1]; [12]
  Plant response rating, Wheat: 0
[1]; [13]
  Plant response rating, Wheat: 0
[1]; [14]
  Plant response rating, Wheat: 0
[2]; [11]
  Foxtail, Giant plant response rating: 70
[2]; [12]
  Plant response rating, Foxtail, Giant: 90
[2]; [13]
  Plant response rating, Foxtail, Giant: 50
[2]; [14]
  Plant response rating, Foxtail, Giant: 80
[3]; [11]
  Barnyardgrass plant response rating: 50
[3]; [12]
  Plant response rating, Barnyardgrass: 90
[3]; [13]
  Plant response rating, Barnyardgrass: 30
[3]; [14]
  Plant response rating, Barnyardgrass: 90
[4]; [11]
  Crabgrass, Large plant response rating: 80
[4]; [12]
  Plant response rating, Crabgrass, Large: 90
[4]; [13]
  Plant response rating, Crabgrass, Large: 70
[4]; [14]
  Plant response rating, Crabgrass, Large: 90
[5]; [11]
  Velvetleaf plant response rating: 100
[5]; [12]
  Plant response rating, Velvetleaf: 100
[5]; [13]
  Plant response rating, Velvetleaf: 70
[5]; [14]
  Plant response rating, Velvetleaf: 100
[6]; [11]
  Morningglory plant response rating: 80
[6]; [12]
  Plant response rating, Morningglory: 100
[6]; [14]
  Plant response rating, Morningglory: 100
Corn (Zea mays); [11]
  Corn plant response rating: 0
Corn (Zea mays); [12]
  Plant response rating, Corn: 20
Corn (Zea mays); [13]
  Plant response rating, Corn: 0
Corn (Zea mays); [14]
  Plant response rating, Corn: 0
[7]; [11]
  Pigweed plant response rating: 100
[7]; [12]
  Plant response rating, Pigweed: 100
[7]; [13]
  Plant response rating, Pigweed: 70
[7]; [14]
  Plant response rating, Pigweed: 100
[8]
  Plant response rating, Flood, Sedge, Umbrella: 0
[8]; [15]
  Plant response rating, Sedge, Umbrella: 0
[8]; [16]
  Plant response rating, Sedge, Umbrella: 0
[8]; [17]
  Plant response rating, Sedge, Umbrella: 0
[9]
  Plant response rating, Flood, Barnyardgrass: 0
[9]; [15]
  Plant response rating, Barnyardgrass: 0
[9]; [16]
  Plant response rating, Barnyardgrass: 0
[9]; [17]
  Plant response rating, Barnyardgrass: 0
[10]
  Plant response rating, Flood, Ducksalad: 0
[10]; [15]
  Plant response rating, Ducksalad: 0
[10]; [16]
  Plant response rating, Ducksalad: 0
[10]; [17]
  Plant response rating, Ducksalad: 0
Rice (Oryza sativa)
  Plant response rating, Flood, Rice: 0
Rice (Oryza sativa); [15]
  Plant response rating, Rice: 0
Rice (Oryza sativa); [16]
  Plant response rating, Rice: 0
Rice (Oryza sativa); [17]
  Plant response rating, Rice: 0
